In ChEMBL document CHEMBL1201862, “PubChem BioAssay data set” (2004):
Active and inactive are the calls of the source.

Assays:
Aminopeptidase N = target: T1, Aminopeptidase N (Plasmodium falciparum FcB1/Columbia, UniProt O96935); test: P. falciparum M1AAP inhibitors, biochemical, fluorogenic H-Leu-NHMec substrate, 1536-well (AID 1445); set-up: species or system Plasmodium falciparum 3D7, 3D7
T1 sequence (O96935 whole entry): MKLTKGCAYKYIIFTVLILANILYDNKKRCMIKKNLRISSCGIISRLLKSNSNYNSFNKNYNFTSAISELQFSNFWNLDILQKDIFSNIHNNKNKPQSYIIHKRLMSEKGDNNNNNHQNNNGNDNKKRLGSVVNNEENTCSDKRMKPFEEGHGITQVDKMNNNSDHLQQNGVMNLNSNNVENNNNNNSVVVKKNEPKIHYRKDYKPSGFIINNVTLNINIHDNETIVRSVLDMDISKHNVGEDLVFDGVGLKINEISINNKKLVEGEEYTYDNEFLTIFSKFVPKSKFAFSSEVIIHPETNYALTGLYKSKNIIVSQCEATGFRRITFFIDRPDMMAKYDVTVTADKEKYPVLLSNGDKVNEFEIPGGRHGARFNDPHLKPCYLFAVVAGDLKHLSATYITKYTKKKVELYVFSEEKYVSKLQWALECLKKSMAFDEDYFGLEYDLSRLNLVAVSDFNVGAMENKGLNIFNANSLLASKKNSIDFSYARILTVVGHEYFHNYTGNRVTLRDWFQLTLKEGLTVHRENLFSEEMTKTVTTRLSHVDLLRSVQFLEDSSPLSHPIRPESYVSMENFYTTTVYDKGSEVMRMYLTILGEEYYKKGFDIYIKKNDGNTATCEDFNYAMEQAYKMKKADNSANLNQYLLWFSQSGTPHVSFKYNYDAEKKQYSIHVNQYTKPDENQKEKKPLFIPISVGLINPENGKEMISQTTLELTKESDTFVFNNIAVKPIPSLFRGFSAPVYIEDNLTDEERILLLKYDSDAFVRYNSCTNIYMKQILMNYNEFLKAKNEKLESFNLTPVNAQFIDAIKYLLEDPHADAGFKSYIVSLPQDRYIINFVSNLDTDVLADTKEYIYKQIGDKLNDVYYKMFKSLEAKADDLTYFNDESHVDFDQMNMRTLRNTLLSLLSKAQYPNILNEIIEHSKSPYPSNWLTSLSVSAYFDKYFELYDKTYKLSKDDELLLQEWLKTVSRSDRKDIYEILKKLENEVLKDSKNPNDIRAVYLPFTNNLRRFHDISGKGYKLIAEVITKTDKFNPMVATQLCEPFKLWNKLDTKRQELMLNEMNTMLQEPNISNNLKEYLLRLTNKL

Vero = test: host cell cytotoxicity of antiviral hits, dose response, cytotoxicity control for West Nile virus antiviral project, secondary assay (AID 1650); format: functional; conditions: Chlorocebus sabaeus
[1] = target: SWI/SNF-related matrix-associated actin-dependent regulator of chromatin subfamily A member 2 (Homo sapiens, UniProt P51531); test: Luminescence-based cell-based high throughput dose response assay to identify activators of the function of SWI/SNF related, matrix associated, actin dependent regulator of chromatin, subfamily a, member 2 (SMARCA2, BRM).; format: functional
[2] = Counterscreen for activators of the function of SWI/SNF related, matrix associated, actin dependent regulator of chromatin, subfamily a, member 2 (SMARCA2, BRM): Luminescence-based cell-based high throughput dose response assay to identify non-selective compounds using the VP16 reporter assay.; format: functional
[3] = target: T2, DNA repair protein RAD52 homolog (Homo sapiens, UniProt P43351); format: functional, biochemical
T2 sequence (P43351 whole entry): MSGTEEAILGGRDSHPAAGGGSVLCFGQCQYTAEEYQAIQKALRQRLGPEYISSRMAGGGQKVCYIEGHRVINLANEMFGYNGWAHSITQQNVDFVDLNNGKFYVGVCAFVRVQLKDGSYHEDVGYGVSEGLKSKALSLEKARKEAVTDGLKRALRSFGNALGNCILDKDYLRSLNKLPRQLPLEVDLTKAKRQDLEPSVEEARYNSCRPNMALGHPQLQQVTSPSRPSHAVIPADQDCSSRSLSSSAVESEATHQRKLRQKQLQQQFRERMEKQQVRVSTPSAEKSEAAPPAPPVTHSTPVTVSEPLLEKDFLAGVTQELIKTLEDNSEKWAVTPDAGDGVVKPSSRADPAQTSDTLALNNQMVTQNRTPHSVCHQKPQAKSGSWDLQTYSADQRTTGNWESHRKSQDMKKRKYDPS

Melanocortin receptor 4 = Melanocortin receptor 4 (Homo sapiens, UniProt P32245); format: functional, cell-based;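 further: Cell-based assay with luminescence read-out, confirmatory dose-response testing for agonist activity of biased ligands at MC4R; human U2OS cells with tagged receptor and beta-arrestin; potency of agonists that increase receptor coupling to beta-arrestin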
[4] = target: Tyrosine-protein phosphatase non-receptor type 11 (Homo sapiens, UniProt Q06124); test: SHP2 phosphatase inhibition, dose response, selectivity assay for STEP inhibitor project, biochemical (AID 602367); format: functional; conditions: read-out: IC50_Mean
[5] = target: Tyrosine-protein phosphatase non-receptor type 5 (Homo sapiens, UniProt P54829); test: STEP phosphatase inhibitors, confirmation, biochemical, fluorescence intensity, uHTS hits (AID 602372); format: functional; conditions: read-out: IC50_Mean
[6] = target: Dual specificity protein phosphatase 3 (Homo sapiens, UniProt P51452); test: VHR phosphatase inhibition, dose response, selectivity assay for STEP inhibitor project, biochemical (AID 602374); format: functional; conditions: read-out: IC50_Mean
[7] = cytotoxicity in HEK-293T cells, dose response, cytotoxicity control for TCR NF-kB inhibitor project, luminescence, T-cell screen hits (AID 489026); format: functional, cell-based;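 further: cells exposed to compound about 14 hours before the viability readout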
Beta-galactosidase = Beta-galactosidase (Escherichia coli, UniProt Q8VNN2); test: Dose response counterscreen for EBI2 assay utilizing the enzyme, b-galactosidase.; format: functional
cells = format: functional, cell-based
[8] = target: Nuclear receptor subfamily 0 group B member 1 (Homo sapiens, UniProt P51843); format: functional, cell-based;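 further: HEK293T cells transfected with SF-1 and DAX-1 plus StAR promoter luciferase reporter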
[9] = inhibitors of HIV Env-driven cell fusion, dose response, cherry-pick (AID 652057); format: functional, cell-based
[10] = ZM109 Env clade C HIV-1 fusion inhibitors, dose response, HeLa effector, CEM target cells, luciferase, cherry-pick (AID 652058); format: functional, cell-based
[11] = inhibitors of clade B AD8 Env fusion, dose response, cell-based, cherry-pick (AID 652062); format: functional;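 further: luciferase signal from cell-cell fusion driven by HIV-1 clade B AD8 Env; potency is for inhibitors of fusion seen as a drop in luminescence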
[12] = target: T3, Sentrin-specific protease 8 (Homo sapiens, UniProt Q96LD8); format: functional
T3 sequence (Q96LD8 whole entry): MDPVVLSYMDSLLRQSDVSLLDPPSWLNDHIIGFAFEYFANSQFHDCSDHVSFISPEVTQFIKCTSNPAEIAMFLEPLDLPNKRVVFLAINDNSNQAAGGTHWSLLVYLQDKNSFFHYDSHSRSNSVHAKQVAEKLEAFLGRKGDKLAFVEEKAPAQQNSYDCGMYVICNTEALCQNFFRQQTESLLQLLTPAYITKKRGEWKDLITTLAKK

[13] = target: T3, Sentrin-specific protease 8; format: functional; remark: listed apart in the source
Caspase-6 = target: T4, Caspase-6 (Homo sapiens, UniProt P55212); test: human caspase-6 inhibitors, dose response, biochemical, VEID-R110 fluorescence, cherry-pick (AID 720632)
T4 sequence (P55212 whole entry): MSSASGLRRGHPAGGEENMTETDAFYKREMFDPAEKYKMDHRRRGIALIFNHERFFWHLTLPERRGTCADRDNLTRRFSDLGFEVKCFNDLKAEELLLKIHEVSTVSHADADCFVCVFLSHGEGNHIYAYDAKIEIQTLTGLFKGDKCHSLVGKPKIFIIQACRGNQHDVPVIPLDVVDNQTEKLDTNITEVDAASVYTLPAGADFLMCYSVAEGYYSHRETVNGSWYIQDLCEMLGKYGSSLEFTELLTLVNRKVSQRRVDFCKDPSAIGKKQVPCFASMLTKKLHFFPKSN

[14] = target: Fructose-bisphosphate aldolase (Mycobacterium tuberculosis, UniProt P9WQA3); test: Fluorescence-based biochemical high throughput dose response assay for inhibitors of the fructose-bisphosphate aldolase (FBA) of M. tuberculosis.; format: functional
Sequence of Fructose-bisphosphate aldolase (P9WQA3 whole entry): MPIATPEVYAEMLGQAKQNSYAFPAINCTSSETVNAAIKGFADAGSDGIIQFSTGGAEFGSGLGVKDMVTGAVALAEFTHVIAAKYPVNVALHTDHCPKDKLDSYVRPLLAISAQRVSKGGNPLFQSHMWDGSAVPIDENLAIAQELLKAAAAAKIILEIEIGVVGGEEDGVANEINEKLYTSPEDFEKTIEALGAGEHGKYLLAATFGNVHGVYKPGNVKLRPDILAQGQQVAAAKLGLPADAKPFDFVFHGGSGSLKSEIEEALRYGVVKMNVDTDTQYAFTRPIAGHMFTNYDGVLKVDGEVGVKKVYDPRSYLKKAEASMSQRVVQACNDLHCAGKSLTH

Sequence of Nuclear receptor subfamily 0 group B member 1 (P51843 whole entry, the tested form may be a part): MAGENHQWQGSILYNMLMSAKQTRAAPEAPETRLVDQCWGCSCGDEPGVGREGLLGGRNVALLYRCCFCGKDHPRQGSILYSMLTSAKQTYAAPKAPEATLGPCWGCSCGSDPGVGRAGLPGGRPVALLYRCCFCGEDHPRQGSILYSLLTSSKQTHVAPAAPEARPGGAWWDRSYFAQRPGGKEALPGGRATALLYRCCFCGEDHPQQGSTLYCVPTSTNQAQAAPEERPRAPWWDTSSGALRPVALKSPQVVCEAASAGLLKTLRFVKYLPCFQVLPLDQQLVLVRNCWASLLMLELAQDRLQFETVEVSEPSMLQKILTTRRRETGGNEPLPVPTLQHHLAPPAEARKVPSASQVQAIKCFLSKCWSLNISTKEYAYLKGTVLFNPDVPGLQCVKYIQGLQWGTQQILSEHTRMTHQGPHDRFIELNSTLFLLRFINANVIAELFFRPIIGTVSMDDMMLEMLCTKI
Sequence of SWI/SNF-related matrix-associated actin-dependent regulator of chromatin subfamily A member 2 (P51531 whole entry): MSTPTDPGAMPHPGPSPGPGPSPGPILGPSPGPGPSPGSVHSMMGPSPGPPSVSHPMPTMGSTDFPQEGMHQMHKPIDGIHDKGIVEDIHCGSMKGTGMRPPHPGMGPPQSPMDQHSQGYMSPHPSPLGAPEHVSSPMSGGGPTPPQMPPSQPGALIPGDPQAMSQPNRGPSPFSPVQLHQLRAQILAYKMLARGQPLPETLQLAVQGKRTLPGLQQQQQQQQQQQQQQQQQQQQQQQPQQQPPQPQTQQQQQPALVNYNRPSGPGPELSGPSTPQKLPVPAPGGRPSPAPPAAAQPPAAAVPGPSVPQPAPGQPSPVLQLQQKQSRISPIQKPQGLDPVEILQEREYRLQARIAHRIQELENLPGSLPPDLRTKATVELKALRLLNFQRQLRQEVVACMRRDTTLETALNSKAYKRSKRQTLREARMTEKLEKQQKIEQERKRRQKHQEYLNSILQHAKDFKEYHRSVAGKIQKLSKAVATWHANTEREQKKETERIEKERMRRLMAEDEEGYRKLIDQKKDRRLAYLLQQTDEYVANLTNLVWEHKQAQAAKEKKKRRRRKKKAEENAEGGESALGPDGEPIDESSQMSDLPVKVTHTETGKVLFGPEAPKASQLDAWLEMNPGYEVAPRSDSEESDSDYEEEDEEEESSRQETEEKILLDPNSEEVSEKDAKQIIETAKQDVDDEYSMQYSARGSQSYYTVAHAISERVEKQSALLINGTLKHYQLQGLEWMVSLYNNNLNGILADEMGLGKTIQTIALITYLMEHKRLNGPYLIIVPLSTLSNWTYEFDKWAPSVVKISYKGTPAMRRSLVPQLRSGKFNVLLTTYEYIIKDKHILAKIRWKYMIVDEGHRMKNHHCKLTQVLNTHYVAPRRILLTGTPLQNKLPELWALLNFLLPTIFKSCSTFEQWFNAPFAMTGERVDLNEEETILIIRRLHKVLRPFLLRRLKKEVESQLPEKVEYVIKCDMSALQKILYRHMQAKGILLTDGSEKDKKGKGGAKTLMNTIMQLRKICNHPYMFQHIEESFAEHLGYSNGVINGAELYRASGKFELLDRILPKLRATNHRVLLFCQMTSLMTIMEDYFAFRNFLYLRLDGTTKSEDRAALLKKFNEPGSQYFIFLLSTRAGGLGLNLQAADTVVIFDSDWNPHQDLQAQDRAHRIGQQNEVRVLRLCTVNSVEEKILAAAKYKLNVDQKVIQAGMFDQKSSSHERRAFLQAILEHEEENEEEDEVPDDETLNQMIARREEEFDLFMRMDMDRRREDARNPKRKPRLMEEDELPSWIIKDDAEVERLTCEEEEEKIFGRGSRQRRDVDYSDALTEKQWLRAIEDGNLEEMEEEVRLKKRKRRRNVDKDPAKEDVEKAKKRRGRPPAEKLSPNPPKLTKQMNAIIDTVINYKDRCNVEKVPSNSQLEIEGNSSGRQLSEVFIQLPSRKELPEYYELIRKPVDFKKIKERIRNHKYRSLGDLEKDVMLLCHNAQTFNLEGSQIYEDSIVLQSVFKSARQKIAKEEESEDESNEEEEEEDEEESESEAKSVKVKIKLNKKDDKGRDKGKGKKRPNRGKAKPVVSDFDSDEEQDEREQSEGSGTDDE
Sequence of Tyrosine-protein phosphatase non-receptor type 5 (P54829 whole entry): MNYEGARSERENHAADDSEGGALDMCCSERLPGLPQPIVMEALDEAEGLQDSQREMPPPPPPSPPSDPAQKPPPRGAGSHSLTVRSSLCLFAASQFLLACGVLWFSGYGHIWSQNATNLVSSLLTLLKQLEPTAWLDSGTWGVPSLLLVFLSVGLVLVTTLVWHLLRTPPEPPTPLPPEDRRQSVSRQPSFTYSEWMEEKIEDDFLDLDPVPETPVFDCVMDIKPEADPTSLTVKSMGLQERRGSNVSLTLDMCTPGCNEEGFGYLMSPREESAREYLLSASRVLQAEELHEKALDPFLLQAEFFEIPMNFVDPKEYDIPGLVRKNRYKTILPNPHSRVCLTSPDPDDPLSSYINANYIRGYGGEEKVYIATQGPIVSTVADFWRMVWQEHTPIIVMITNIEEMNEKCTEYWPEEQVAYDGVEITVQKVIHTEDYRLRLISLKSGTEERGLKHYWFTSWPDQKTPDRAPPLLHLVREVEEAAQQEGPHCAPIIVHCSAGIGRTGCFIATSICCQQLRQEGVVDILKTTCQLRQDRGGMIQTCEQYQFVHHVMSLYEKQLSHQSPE
Sequence of Dual specificity protein phosphatase 3 (P51452 whole entry): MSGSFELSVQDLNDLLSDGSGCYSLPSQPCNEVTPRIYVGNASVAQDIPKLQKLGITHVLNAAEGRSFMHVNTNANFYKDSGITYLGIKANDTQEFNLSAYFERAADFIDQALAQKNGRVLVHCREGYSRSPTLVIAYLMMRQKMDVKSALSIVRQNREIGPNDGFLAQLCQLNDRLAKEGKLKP
Sequence of Tyrosine-protein phosphatase non-receptor type 11 (Q06124 whole entry): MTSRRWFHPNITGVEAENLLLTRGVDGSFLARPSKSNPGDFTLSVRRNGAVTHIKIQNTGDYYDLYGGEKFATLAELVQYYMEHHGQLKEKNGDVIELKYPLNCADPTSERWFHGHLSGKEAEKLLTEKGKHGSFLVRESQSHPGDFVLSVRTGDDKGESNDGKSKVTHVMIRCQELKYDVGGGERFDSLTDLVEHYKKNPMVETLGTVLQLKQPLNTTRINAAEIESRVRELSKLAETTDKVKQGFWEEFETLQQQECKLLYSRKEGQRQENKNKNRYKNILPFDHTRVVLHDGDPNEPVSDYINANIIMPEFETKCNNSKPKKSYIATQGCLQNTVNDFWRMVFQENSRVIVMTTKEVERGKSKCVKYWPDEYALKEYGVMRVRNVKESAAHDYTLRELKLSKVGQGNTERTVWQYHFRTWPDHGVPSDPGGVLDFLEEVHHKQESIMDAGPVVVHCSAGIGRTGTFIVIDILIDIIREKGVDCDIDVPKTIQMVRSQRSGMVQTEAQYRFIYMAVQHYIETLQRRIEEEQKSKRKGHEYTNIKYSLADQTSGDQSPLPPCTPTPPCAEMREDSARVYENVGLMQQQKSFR
Sequence of Melanocortin receptor 4 (P32245 whole entry): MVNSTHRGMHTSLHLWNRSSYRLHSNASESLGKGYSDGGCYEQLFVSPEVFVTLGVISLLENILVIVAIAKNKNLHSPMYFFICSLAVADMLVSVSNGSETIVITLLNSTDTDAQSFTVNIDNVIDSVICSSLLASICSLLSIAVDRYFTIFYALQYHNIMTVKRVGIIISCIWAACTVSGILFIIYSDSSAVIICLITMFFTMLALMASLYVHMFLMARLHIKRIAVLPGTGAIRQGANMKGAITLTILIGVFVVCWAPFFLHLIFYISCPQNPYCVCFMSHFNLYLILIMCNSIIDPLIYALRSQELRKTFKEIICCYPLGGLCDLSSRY

## O=C1c2ccccc2C(=O)c2c(NCCCN(CCO)CCO)cccc21
Aminopeptidase N
  IC50: 77.7 µM (active)
Vero
  CC50: 13.9 µM (active)
[1]
  EC50: > 10.1 µM (inactive)
[2]
  EC50: > 91.2 µM (inactive)
[3]
  AC50: 0.977 µM (active)

## COc1ccc2nc(NC(=O)CSc3nc4cccnc4n3C)sc2c1
Melanocortin receptor 4
  EC50: > 89.2 µM (inactive)

## Clc1ccc(Cl)c(-c2nc(-c3ccncc3)no2)c1
[4]
  IC50: 6.55 µM (active)
[5]
  IC50: > 80 µM (inactive)
[6]
  IC50: 25.4 µM (inactive)

## Cc1cccc(N2CCN(C(=O)c3ccc4[nH]c(C)c(C)c4c3)CC2)c1C
[7]
  IC50: > 80 µM (inactive)
Beta-galactosidase
  IC50: > 80 µM (inactive)

## Cc1ccc2nc(NC(=O)COC(=O)c3cccnc3)sc2c1
cells
  IC50: > 67.5 µM (inactive)
[8]
  IC50: > 67.5 µM (inactive)

## C[C@@H]1CN([C@@H](C)CO)C(=O)Cc2cc(NS(=O)(=O)c3cccs3)ccc2O[C@H]1CN(C)Cc1ccc(Cl)c(Cl)c1
[9]
  AC50: 9.27 µM (active)
[10]
  AC50: < 0.26 µM (active)
[11]
  AC50: 0.486 µM (active)

## COC(=O)N/N=C1/C/C(=N\NC(=O)OC)c2ccccc21
[12]
  IC50: 0.557 µM (active)
[13]
  IC50: 0.365 µM (active)
Caspase-6
  AC50: 4.22 µM (active)

## C/C(=N/NC(=O)c1ccoc1C)c1cccc(NC(=O)C(F)(F)F)c1
cells
  IC50: > 67.5 µM (inactive)
[8]
  IC50: > 67.5 µM (inactive)

## CN(C)c1ccc(/C=N\NC(=O)CC#N)cc1
[14]
  IC50: > 1.11 µM (active)
